Laboratory results as given in patent publication US20240261422A1, “ANTHRACYCLINE ANTIBODY CONJUGATES” (SEAGEN INC., priority 2021, published 2024).

Legend:
[1] = tested on: HL60/RV, MDR + AML; test: In vitro growth inhibition (CellTiter-Glo, 96 h), HL60/RV; format: cell-based; details: for IC50 (ng/mL) HL60/RV, MDR + AML: cOKT9 ADCs, average DAR 8, 96 h
Procedure: (§1) Cell culture of cell lines as listed in Table 2-4 in log-phase growth were seeded in 96-well plates and grown for 24 h in cell culture media containing 150 μL RPMI 1640 supplemented with 20% FBS (see Mol. Cancer Ther., 2016, 15(5), 938-945 and Mol. Cancer Ther., 2018, 17(8), 1752-1760). Serial dilutions of free drugs or antibody-drug conjugates (final concentration between 0.004 nM and 1 μM) in cell culture media were prepared at 4× working concentrations; 50 μL of each dilution was added to the 96-well plates. Following addition of the drug or ADC, the cells were incubated with test articles (free drugs or ADCs) for 4 d at 37° C. After 96 h, growth inhibition was assessed by CellTiter-Glo® (Promega, Madison, WI) and luminescence was measured on a plate reader (brand, model).
(§2) Cells were treated for 96 hours with anthracycline analogues listed in Table 2, and then assessed for viability as described in the procedures as described above. […] ND denotes value not determined with that assay for the specified compound.
(§3) ADCs were prepared by full reduction of interchain disulfides to reveal 8-conjugatable cysteines/antibody, and subsequent alkylation with the maleimide-containing drug-linkers (Compounds 14, 18, 21, 24, 29, 32, 33, 34, and 48) according to the procedures described in Mol. Cancer Ther. 2018, 17(8). 1752-1760. Conjugates of antibody cOKT9 were prepared with anthracycline linkers. Cancer cell lines were treated with cOKT9 ADCs (average DAR of 8:1) for 96 h and then assessed for viability. […] ND denotes value not determined with that assay for the specified compound.

[2] = tested on: L540cy, 786-O, BxPC3, HL60, HL60/RV; test: cells; details: 96 h, read-out: IC50 values on the cancer lines tested
[3] = tested on: HL60, AML; test: In vitro growth inhibition (CellTiter-Glo, 96 h), HL60; format: cell-based; details: for IC50 (ng/mL) HL60, AML: cOKT9 ADCs, average DAR 8, 96 h
Procedure: as §1, §2, §3

[4] = tested on: 786-O, MDR + RCC; test: In vitro growth inhibition (CellTiter-Glo, 96 h), 786-O; format: cell-based; details: for IC50 (ng/mL) 786-O, MDR + RCC: cOKT9 ADCs, average DAR 8, 96 h
Procedure: as §1, §2, §3

[5] = tested on: BxPC3, PancCa; test: In vitro growth inhibition (CellTiter-Glo, 96 h), BxPC3; format: cell-based; details: for IC50 (ng/mL) BxPC3, PancCa: cOKT9 ADCs, average DAR 8, 96 h
Procedure: as §1, §2, §3

[6] = tested on: L540cy, HL; test: In vitro growth inhibition (CellTiter-Glo, 96 h), L540cy; format: cell-based
Procedure: as §1, §2, §3
(§4) Anti-CD30 ADCs comprising cAC10 antibody conjugated to drug-linkers 24, 32, 29, 18, 14, and 48 with an average DAR of 4 were prepared for evaluation on a CD30-expressing lymphoma cell line panel. […] Anti-CD30 conjugates bearing the PNU linkers 24, 32, 29, 18, and 14 were active on L540cy, DEL, and Karpas299 lymphoma cell lines, and conjugate 48 was active on L540cy and DEL cell lines, with IC50s ranging from 0.2-4 ng/mL.

[7] = tested on: L540cy Hodgkin's lymphoma xenograft; test: L540cy CD30+ Hodgkin lymphoma xenograft model; format: in vivo, SCID mice; details: cAC10 S239C ADCs, average DAR 2; single dose i.p. at about 100 mm^3
Procedure: (§5) All experiments were conducted in concordance with the Animal Care and Use Committee in a facility fully accredited by the Association for Assessment and Accreditation of Laboratory Animal Care. Efficacy experiments were conducted using the L540cy Hodgkin's lymphoma and DEL/BVR anaplastic large cell lymphoma xenograft models (Mol. Cancer Ther., 2018, 17(8), 1752-1760). Tumor cells, as a cell suspension, were implanted subcutaneously in immune-compromised SCID female mice. Upon tumor engraftment, the mice were randomized into study groups when the average tumor volume reached about 100 mm^3. The ADCs were dosed once via intraperitoneal injection. Tumor volume as a function of time was determined using the formula (L×W2)/2. Animals were euthanized when tumor volumes reached 1000 mm^3.
Anti-CD30 conjugates bearing PNU drug-linkers 29, 18, and 14 were evaluated in a CD30-expressing xenograft model as described above. cAC10 antibody with the S239C mutation is conjugated to the PNU drug linkers with an average DAR of 2 to minimize the effects of ADC pharmacokinetics. Tumor-bearing mice were administered a single dose intraperitoneally (i.p.) of test article once the average tumor volume reached 100 mm^3 (typically on day 8). Untreated mice were used as negative controls.

[8] = tested on: L428, MDR + HL; test: In vitro growth inhibition (CellTiter-Glo, 96 h), L428; format: cell-based; details: cAC10 (anti-CD30) ADCs, average DAR 4
Procedure: as §1, §4

[9] = tested on: Karpas299, ALCL; test: In vitro growth inhibition (CellTiter-Glo, 96 h), Karpas299; format: cell-based; details: cAC10 (anti-CD30) ADCs, average DAR 4
Procedure: as §1, §4

[10] = tested on: DEL/BVR anaplastic large cell lymphoma xenograft; test: DEL/BVR MDR+, CD30+ anaplastic large cell lymphoma xenograft model; format: in vivo, SCID mice; details: cAC10 S239C ADCs, average DAR 2; 3 mg/kg single dose i.p.
Procedure: as §5
Anti-CD30 conjugates bearing PNU drug-linkers 29, 18, and 14 were further evaluated in a DEL/BVR MDR+, CD30+ anaplastic large cell lymphoma xenograft model. cAC10 antibody with the S239C mutation is conjugated to the PNU drug linkers with an average DAR of 2 to minimize the effects of ADC pharmacokinetics. Tumor-bearing mice were administered a 3 mg/kg single dose intraperitoneally (i.p.) of test article once the average tumor volume reached 100 mm^3 (typically on day 4). […] However, the conjugate comprising PNU linker 29 appeared to be non-efficacious, and only provided minimal tumor growth delay (FIG. 2). Untreated mice were used as negative controls.

[11] = tested on: L540cy, 786-O, BxPC3, HL60, HL60/RV; details: 24 h
[12] = tested on: Ramos, CD30 − NHL; test: In vitro growth inhibition (CellTiter-Glo, 96 h), Ramos; format: cell-based; details: cAC10 (anti-CD30) ADCs, average DAR 4
Procedure: as §1, §4

[13] = tested on: DEL, ALCL; test: In vitro growth inhibition (CellTiter-Glo, 96 h), DEL; format: cell-based; details: cAC10 (anti-CD30) ADCs, average DAR 4
Procedure: as §1, §4

[14] = cAC10 (anti-CD30) ADCs, average DAR 4
[15] = cOKT9 ADCs, average DAR 8, 96 h

| SMILES | IC50 ([1]; Homo sapiens, HL-60, 96 h, read-out: IC50 (nM) HL60/RV, MDR + AML) [nM] | IC50 [2] [nM] | IC50 ([3]; Homo sapiens, HL-60, 96 h, read-out: IC50 (nM) HL60, AML) [nM] | IC50 ([4]; Homo sapiens, 786-0, anthracycline free drugs, 96 h, read-out: IC50 (nM) 786-O, MDR + RCC) [nM] | IC50 ([5]; Homo sapiens, BXPC-3, anthracycline free drugs, 96 h, read-out: IC50 (nM) BxPC3, PancCa) [nM] | IC50 ([6]; L540cy, anthracycline free drugs, 96 h, read-out: IC50 (nM) L540cy, HL) [nM] | antitumor activity, L540cy xenograft (FIG. 1) [7] | IC50 (ng/mL) HL60/RV, MDR + AML [1] | IC50 (ng/mL) L428, MDR + HL [8] | IC50 (ng/mL) HL60, AML [3] | IC50 (ng/mL) Karpas299, ALCL [9] | antitumor activity, DEL/BVR xenograft (FIG. 2) [10] | IC50 (ng/mL) 786-O, MDR + RCC [4] | IC50 (ng/mL) BxPC3, PancCa [5] | IC50 (ng/mL) L540cy, HL [6, 14] | IC50 (ng/mL) L540cy, HL [6, 15] | IC50s of cOKT9 conjugates [11] [ng/mL] | IC50 (ng/mL) Ramos, CD30 − NHL [12] | IC50 (ng/mL) DEL, ALCL [13] | activity of cOKT9 conjugates on multidrug resistant HL60/RV ([1]; cOKT9 ADCs DAR 8, result in words) |
| --- | --- | --- | --- | --- | --- | --- | --- | --- | --- | --- | --- | --- | --- | --- | --- | --- | --- | --- | --- | --- |
| COc1cccc2c1C(=O)c1c(O)c3c(c(O)c1C2=O)C[C@@](O)(C(=O)O)C[C@@H]3O[C@H]1C[C@H]2[C@H](O[C@@H]3[C@@H](OC)OCCN32)[C@H](C)O1 [Compound 6, (2S,4S)-2,5,12-trihydroxy-7-methoxy-4-(((1S,3R,4aS,9S,9aR,10aS)-9-methoxy-1-methyloctahydro-1H-pyrano[4′,3′:4,5]oxazolo[2,3-c][1,4]oxazin-3-yl)oxy)-6,11-dioxo-1,2,3,4,6,11-hexahydrotetracene-2-carboxylic acid] | 10 to 100 | 5 to 19 | 10 to 100 | < 10 | 10 to 100 | < 10 |  |  |  |  |  |  |  |  |  |  |  |  |  |  |
| COc1cccc2c1C(=O)c1c(O)c3c(c(O)c1C2=O)C[C@@](O)(C(=O)NCCNC(=O)CCN1C(=O)C=CC1=O)C[C@@H]3O[C@H]1C[C@H]2[C@H](O[C@@H]3[C@@H](OC)OCCN32)[C@H](C)O1 [Compound 14, (2S,4S)—N-(2-(3-(2,5-dioxo-2,5-dihydro-1H-pyrrol-1-yl)propanamido)ethyl)-2,5,12-trihydroxy-7-methoxy-4-(((1S,3R,4aS,9S,9aR,10aS)-9-methoxy-1-methyloctahydro-1H-pyrano[4′,3′:4,5]oxazolo[2,3-c][1,4]oxazin-3-yl)oxy)-6,11-dioxo-1,2,3,4,6,11-hexahydrotetracene-2-carboxamide] |  |  |  |  |  |  | active with a majority of animals in a complete regression | D (IC50≥1000 ng/mL) | B (1 ng/mL≤IC50<10 ng/mL) | C (100 ng/mL≤IC50<1000 ng/mL) | A (IC50<1 ng/mL) | efficacious in suppressing tumor growth | A (IC50<10 ng/mL) | A (IC50<10 ng/mL) | B (1 ng/mL≤IC50<10 ng/mL) | A (IC50<10 ng/mL) | 1 to 150 | E (IC50≥500 ng/mL) | B (1 ng/mL≤IC50<10 ng/mL) |  |
| COc1cccc2c1C(=O)c1c(O)c3c(c(O)c1C2=O)C[C@@](O)(C(=O)N(C)CCN(C)C(=O)OCc1ccc(NC(=O)[C@H](C)NC(=O)[C@@H](NC(=O)CCN2C(=O)C=CC2=O)C(C)C)cc1)C[C@@H]3O[C@H]1C[C@H]2[C@H](O[C@@H]3[C@@H](OC)OCCN32)[C@H](C)O1 [Compound 32, 4-((S)-2-((S)-2-(3-(2,5-dioxo-2,5-dihydro-1H-pyrrol-1-yl)propanamido)-3-methylbutanamido)propanamido)benzyl methyl(2-((2S,4S)-2,5,12-trihydroxy-7-methoxy-4-(((1S,3R,4aS,9S,9aR,10aS)-9-methoxy-1-methyloctahydro-1H-pyrano[4′,3′:4,5]oxazolo[2,3-c][1,4]oxazin-3-yl)oxy)-N-methyl-6,11-dioxo-1,2,3,4,6,11-hexahydrotetracene-2-carboxamido)ethyl)carbamate] |  |  |  |  |  |  |  | C (100 ng/mL≤IC50<1000 ng/mL) | E (IC50≥500 ng/mL) | B (10 ng/mL≤IC50<100 ng/mL) | B (1 ng/mL≤IC50<10 ng/mL) |  | C (100 ng/mL≤IC50<1000 ng/mL) | B (10 ng/mL≤IC50<100 ng/mL) | C (10 ng/mL≤IC50<100 ng/mL) | B (10 ng/mL≤IC50<100 ng/mL) | 1 to 150 | D (100 ng/mL≤IC50<500 ng/mL) | B (1 ng/mL≤IC50<10 ng/mL) | active |
